Data reported in PMC2742562 (ACS chemical biology, 2009).

Biological target: glucose/galactose binding protein (GGBP) (Escherichia coli, UniProt P0AEE5)
Assay: […] galactose competition binding assay

glucose/galactose binding protein (GGBP), sequence (P0AEE5 24-332 limits assumed): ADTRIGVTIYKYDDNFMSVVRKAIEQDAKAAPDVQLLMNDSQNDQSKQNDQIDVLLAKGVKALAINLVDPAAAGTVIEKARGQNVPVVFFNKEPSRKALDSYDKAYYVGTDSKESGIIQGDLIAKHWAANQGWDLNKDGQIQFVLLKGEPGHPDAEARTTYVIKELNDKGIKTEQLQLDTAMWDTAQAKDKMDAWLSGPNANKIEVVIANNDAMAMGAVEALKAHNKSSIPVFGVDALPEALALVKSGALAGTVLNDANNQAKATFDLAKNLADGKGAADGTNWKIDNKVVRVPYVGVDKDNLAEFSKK

With `OC[C@H]1O[C@@H](OCCO[C@H]2[C@H](O)[C@@H](CO)OC(O)[C@@H]2O)[C@H](O)[C@@H](O)[C@@H]1O` (stereo partly drawn) [DWI, 3-O-(2'-beta-D-glucopyanosyloxyethyl)-D-glucose] the Ki was 27 ± 7 µM.
